Our source for the Withdrawal threshold and IC50 values is patent US7126027B2, “N-[(1-dimethylaminocycloalkyl)methyl]benzamide derivatives” (Akzo Nobel N.V., priority 2002, dated 2006).

For orientation: IC50 means the concentration that gives 50% inhibition.

The first experiment deals with rats. Description: Chung model of neuropathy (L5 spinal nerve ligation, von Frey withdrawal threshold). Conditions: twenty minutes after subcutaneous injection; Example 2 20 mg/kg, morphine sulphate 2 mg/kg, gabapentin 50 mg/kg; post-surgery pre-drug 0.8±0.1 g. Format: in vivo, rat.
Compound `NCC1(CC(=O)O)CCCCC1` [gabapentin] had a Withdrawal threshold of 3.2 ± 1.5 g.

The compound `COc1cc(C(=O)NCC2(N(C)C)CCCC2)cc(OC)c1OCc1ccccc1` [Example 2, 4-Benzyloxy-3,5-dimethoxy-N-[1-(dimethylaminocyclopentyl)methyl]benzamide] registered a Withdrawal threshold of 4.7 ± 1.15 g.

Take `CN1CC[C@]23c4c5ccc(O)c4O[C@H]2[C@@H](O)C=C[C@H]3[C@H]1C5.O=S(=O)(O)O` [morphine, morphine sulphate]: the Withdrawal threshold came to 4.2 ± 1.5 g.

The next experiment deals with T1, hGlyT-2 (Homo sapiens, UniProt Q9Y345).
T1 construct: expressed in transfected cells
T1 sequence (Q9Y345 1-797): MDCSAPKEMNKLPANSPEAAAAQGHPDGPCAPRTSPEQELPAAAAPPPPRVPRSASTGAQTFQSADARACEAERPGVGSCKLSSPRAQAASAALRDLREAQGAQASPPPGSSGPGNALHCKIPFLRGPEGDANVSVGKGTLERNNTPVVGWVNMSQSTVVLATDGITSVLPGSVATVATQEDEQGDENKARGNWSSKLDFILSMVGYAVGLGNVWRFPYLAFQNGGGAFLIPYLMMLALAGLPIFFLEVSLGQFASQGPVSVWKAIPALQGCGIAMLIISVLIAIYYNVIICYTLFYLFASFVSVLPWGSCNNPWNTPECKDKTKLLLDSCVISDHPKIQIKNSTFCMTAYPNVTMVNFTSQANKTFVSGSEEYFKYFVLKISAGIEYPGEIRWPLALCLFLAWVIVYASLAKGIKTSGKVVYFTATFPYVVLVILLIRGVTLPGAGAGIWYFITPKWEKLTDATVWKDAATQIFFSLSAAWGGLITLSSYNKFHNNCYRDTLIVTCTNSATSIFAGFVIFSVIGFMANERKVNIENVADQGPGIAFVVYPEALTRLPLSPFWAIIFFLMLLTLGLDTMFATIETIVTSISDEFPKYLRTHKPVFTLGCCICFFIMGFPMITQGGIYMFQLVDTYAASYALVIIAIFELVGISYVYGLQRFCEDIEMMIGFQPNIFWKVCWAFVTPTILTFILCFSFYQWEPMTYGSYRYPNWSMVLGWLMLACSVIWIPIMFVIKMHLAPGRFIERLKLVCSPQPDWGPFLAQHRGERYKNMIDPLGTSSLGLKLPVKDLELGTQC
Description: Glycine uptake assay, CHO cells stably transfected with hGlyT-2. Format: cell-based. Conditions: [3H]-glycine 30 μM, 37° C., 10 minutes, read-out: Inhibition of glycine transport by hGlyT-2 IC50. How it is done: Glycine uptake assays were performed as described by Morrow et al. (FEBS Lett. 1998, 439, 334–340) using CHO cells stably transfected with either hGlyT-1b or hGlyT-2. Cells were grown in 96 well microtitre plates (30,000 cells/well) for 24–48 hours before removal of culture medium and addition of Hanks Balanced Salt Solution (HBSS) containing [^3H]-glycine (30 μM) and varying concentrations of test compounds. Plates were incubated at 37° C. for 10 minutes and uptake terminated by washing three times with ice-cold HBSS. After removal of excess liquid, scintillation cocktail was added to each well, prior to counting in a plate counter. Data were analysed using the GraphPad Prism™ analysis package and the sigmoid dose-response curve fitting option to produce IC50 (the concentration of test compound producing 50% inhibition of uptake) values.
As for `COc1cc(C(=O)NCC2(N(C)C)CCCC2)cc(OC)c1OCCc1ccccc1` [Example 18, 3,5-Dimethoxy-4-(2-phenylethoxy)-N-[(1-dimethylaminocyclopentyl)methyl]benzamide], the IC50 stood at 156 nM.

For the compound `Cc1cc(C(=O)NCC2(N(C)C)CCC2)cc(C)c1OCc1ccccc1` [Example 8, 4-Benzyloxy-3,5-dimethyl-N-[1-(dimethylaminocyclobutyl)methyl]benzamide], the IC50 turned out to be 16 nM.

With `Cc1cc(C(=O)NCC2(N(C)C)CCCC2)cc(C)c1OCc1ccsc1` [Example 20, 3,5-Dimethyl-4-(3-thienyl)methoxy-N-[(1-dimethylaminocyclopentyl)methyl]benzamide], the half-maximal inhibitory concentration (IC50) is 32 nM.

Regarding `COc1cc(C(=O)NCC2(N(C)C)CCCC2)cc(OC)c1OC1CCCC1` [Example 21, 4-Cyclopentyloxy-3,5-dimethoxy-N-[(1-dimethylaminocyclopentyl)methyl]benzamide], the IC50 amounted to 329 nM.

For `COc1cc(C(=O)NCC2(N(C)C)CCCC2)cc(OC)c1OCc1cccc2ccccc12` [Example 19, 3,5-Dimethoxy-4-(1-naphthyl)methoxy-N-[(1-dimethylaminocyclopentyl)methyl]benzamide], the IC50 turned out to be 215 nM.

`COc1cc(C(=O)NCC2(N(C)C)CCCCC2)cc(OC)c1OCc1ccccc1` [Example 5, 4-Benzyloxy-3,5-dimethoxy-N-[(1-dimethylaminocyclohexyl)methyl]benzamide]: the 50% inhibitory concentration (IC50) was 84 nM.

As for `COc1cc(C(=O)NCC2(N(C)C)CCCCC2)cc(OC)c1OCC1CCCCC1` [Example 13, 4-(Cyclohexylmethoxy)-3,5-dimethoxy-N-[(1-dimethylaminocyclohexyl)methyl]benzamide], the half-maximal inhibitory concentration (IC50) was found to be 71 nM.

For `CCCCOc1c(OC)cc(C(=O)NCC2(N(C)C)CCCC2)cc1OC` [Example 7, 4-n-Butyloxy-3,5-dimethoxy-N-[(1-dimethylaminocyclopentyl)methyl]benzamide], the IC50 stood at 77 nM.

For the compound `Cc1cc(C(=O)NCC2(N(C)C)CCCC2)cc(C)c1OCc1ccccc1` [Example 9, 4-Benzyloxy-3,5-dimethyl-N-[(1-dimethylaminocyclopentyl)methyl]benzamide], the IC50 is 27 nM.

For `Cc1cc(C(=O)NCC2(N(C)C)CCCCCC2)cc(C)c1OCc1ccccc1` [Example 16, 4-Benzyloxy-3,5-dimethyl-N-[(1-dimethylaminocycloheptyl)methyl]benzamide], the IC50 is 92 nM.

Consider `COc1cc(C(=O)NCC2(N(C)C)CCCC2)cc(OC)c1OCC(C)C` [Example 15, 3,5-Dimethoxy-4-(2-methylpropoxy)-N-[(1-dimethylaminocyclopentyl)methyl]benzamide], for which the IC50 was 79 nM.

`COc1cc(C(=O)NCC2(N(C)C)CCCC2)cc(OC)c1OCc1ccc(Cl)cc1` [Example 12, 4-(4-Chloro)benzyloxy-3,5-dimethoxy-N-[1-(dimethylaminocyclopentyl)methyl]benzamide]: the IC50 was 44 nM.

As to `COc1cc(C(=O)NCC2(N(C)C)CCCC2)cc(OC)c1OCc1ccc(C)cc1` [Example 10, 3,5-Dimethoxy-4-(4-methylbenzyloxy)-N-[(1-dimethylaminocyclopentyl)methyl]benzamide], the concentration for half-maximal inhibition (IC50) worked out at 30 nM.

In the case of `COc1cc(C(=O)NCC2(N(C)C)CCCC2)cc(OC)c1OCc1ccc(C(F)(F)F)cc1` [Example 14, 3,5-Dimethoxy-4-(4-trifluoromethylbenzyloxy)-N-[(1-dimethylaminocyclopentyl)methyl]benzamide], the concentration for half-maximal inhibition (IC50) came to 76 nM.

Consider `COc1cc(C(=O)NCC2(N(C)C)CCCC2)cc(OC)c1OC(C)c1ccccc1` (stereo not drawn) [Example 11, 3,5-Dimethoxy-4-(1-phenyl)ethoxy-N-[1-(dimethylaminocyclopentyl)methyl]benzamide], for which the half-inhibitory concentration (IC50) was 35 nM.
